Experiments:
[1] = tested on: HCV genotype 1a (H77 strain) replicon in HUH-7 cells; assay: HCV replicon luciferase reporter assay, genotype 1a; type: cell-based; details: Hepatitis C virus, Huh-7, 72 h, HCV genotype 1a replicon luciferase assay, 3 days incubation, range class, read-out: LE_1a (EC50, range)
Method in brief: (§1)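 Replicon inhibition for both genotypes was measured as Renilla luciferase signal (EnduRen, 7.5 μM final, 2 h) after 3-day, 37° C exposure of replicon-bearing HUH-7 cells in 4% FCS DMEM, 0.5% DMSO. The 1b construct carries S1179I; the 1a H77 construct carries P1496L and S2204I. Twenty-point, 3-fold dilutions were fitted four-parametrically for EC50, and CC50 was taken from multiplexed Cell Titer-Blue.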

[2] = tested on: HCV genotype 1b (Con1) replicon in HUH-7 cells; assay: HCV replicon luciferase reporter assay, genotype 1b; type: cell-based; details: Hepatitis C virus, Huh-7, 72 h, HCV genotype 1b replicon luciferase assay, 3 days incubation, range class, read-out: LE_1b (EC50, range)
Method in brief: as §1

Compound | EC50 [1] [nM] | EC50 [2] [nM]
COc1cnc(O[C@@H]2C[C@H]3C(=O)N[C@]4(C(=O)NS(=O)(=O)C5(CF)CC5)C[C@H]4/C=C\CC[C@H](C)C[C@@H](C)[C@H](NC(=O)OC(C)(C)CC(F)(F)F)C(=O)N3C2)c2ccccc12 [Compound 1061, 4,4,4-trifluoro-2-methylbutan-2-yl((2R,6S,7R,9S,13aS,14aR,16aS,Z)-14a-(((1-(fluoromethyl)cyclopropyl)sulfonyl)carbamoyl)-2-((4-methoxyisoquinolin-1-yl)oxy)-7,9-dimethyl-5,16-dioxo-1,2,3,5,6,7,8,9,10,11,13a,14,14a,15,16,16a-hexadecahydrocyclopropa[e]pyrrolo[1,2-a][1,4]diazacyclopentadecin-6-yl)carbamate] | 4.82 to 103 | 4.82 to 103
COc1cnc(O[C@@H]2C[C@H]3C(=O)N[C@]4(C(=O)NS(=O)(=O)C5(CF)CC5)C[C@H]4/C=C\CC[C@@H](C)C[C@@H](C)[C@H](NC(=O)OC(C)(C)CC(F)(F)F)C(=O)N3C2)c2ccccc12 [Compound 1062, 4,4,4-trifluoro-2-methylbutan-2-yl((2R,6S,7R,9R,13aS,14aR,16aS,Z)-14a-(((1-(fluoromethyl)cyclopropyl)sulfonyl)carbamoyl)-2-((4-methoxyisoquinolin-1-yl)oxy)-7,9-dimethyl-5,16-dioxo-1,2,3,5,6,7,8,9,10,11,13a,14,14a,15,16,16a-hexadecahydrocyclopropa[e]pyrrolo[1,2-a][1,4]diazacyclopentadecin-6-yl)carbamate] | < 5.46 | < 5.46
COc1cnc(O[C@@H]2C[C@H]3C(=O)N[C@]4(C(=O)NS(=O)(=O)C5(CF)CC5)C[C@H]4/C=C\CC[C@H](C)C[C@@H](C)[C@H](NC(=O)OC4(C)CCOC4)C(=O)N3C2)c2ccccc12 (stereo partly drawn) [Compound 1063, 3-methyltetrahydrofuran-3-yl ((2R,6S,7R,9S,13aS,14aR,16aS,Z)-14a-(((1-(fluoromethyl)cyclopropyl)sulfonyl)carbamoyl)-2-((4-methoxyisoquinolin-1-yl)oxy)-7,9-dimethyl-5,16-dioxo-1,2,3,5,6,7,8,9,10,11,13a,14,14a,15,16,16a-hexadecahydrocyclopropa[e]pyrrolo[1,2-a][1,4]diazacyclopentadecin-6-yl)carbamate] | 4.82 to 103 | < 5.46
COc1cnc(O[C@@H]2C[C@H]3C(=O)N[C@]4(C(=O)NS(=O)(=O)C5(CF)CC5)C[C@H]4/C=C\CC[C@@H](C)C[C@@H](C)[C@H](NC(=O)OC4(C)CCOC4)C(=O)N3C2)c2ccccc12 (stereo partly drawn) [Compound 1064, 3-methyltetrahydrofuran-3-yl ((2R,6S,7R,9R,13aS,14aR,16aS,Z)-14a-(((1-(fluoromethyl)cyclopropyl)sulfonyl)carbamoyl)-2-((4-methoxyisoquinolin-1-yl)oxy)-7,9-dimethyl-5,16-dioxo-1,2,3,5,6,7,8,9,10,11,13a,14,14a,15,16,16a-hexadecahydrocyclopropa[e]pyrrolo[1,2-a][1,4]diazacyclopentadecin-6-yl)carbamate] | < 5.46 | < 5.46
COc1cnc(O[C@@H]2C[C@H]3C(=O)N[C@]4(C(=O)NS(=O)(=O)C5(CF)CC5)C[C@H]4/C=C\CC[C@H](C)C[C@@H](C)[C@H](NC(=O)OC4(C(F)(F)F)CCOC4)C(=O)N3C2)c2ccccc12 (stereo partly drawn) [Compound 1065, 3-(trifluoromethyl)tetrahydrofuran-3-yl((2R,6S,7R,9S,13aS,14aR,16aS,Z)-14a-(((1-(fluoromethyl)cyclopropyl)sulfonyl)carbamoyl)-2-((4-methoxyisoquinolin-1-yl)oxy)-7,9-dimethyl-5,16-dioxo-1,2,3,5,6,7,8,9,10,11,13a,14,14a,15,16,16a-hexadecahydrocyclopropa[e]pyrrolo[1,2-a][1,4]diazacyclopentadecin-6-yl)carbamate] | 4.82 to 103 | < 5.46
